What was measured:
[1] = test system: HSV-1; assay: Antiherpes activity, inhibition of cytopathic effect (CPE), HSV-1; format: cell-based; conditions: Human alphaherpesvirus 1, 48 h, human foreskin monolayers, mean IC of high and low virus inocula, CPE score lowered by 10 scoring units vs control, 2 days, read-out: Inhibitory Concentration (μM) HSV-1
Description: (§1) Each of the nucleosides was initially dissolved in a diluent containing 60% propylene glycol and 10% EtOH; subsequent dilutions used maintenance culture medium. Agents were assessed at tenfold dilutions with final concentrations ranging from 10,000 to 0.01 micromolar. Confluent human foreskin monolayers were maintained in 96-well microtiter plates using Eagle's Minimal Essential Medium supplemented with 2% fetal bovine serum, antibiotics and glutamine using standard methods.^40 Prior to virus inoculation, the medium was removed from each well and replaced with 100 μL of agent diluted in maintenance medium with differing concentrations in each horizontal row, beginning with the highest concentration in the upper row, with subsequent tenfold dilutions in the next rows and the last (control) row fed with agent-free maintenance medium. The virus inocula were then added, suspended in 100 μL of […] medium. A high-dose inoculum which induced nearly confluent (100%) cytopathic effect (CPE) two days later was added to the first five vertical columns of the plate (1-5) and, similarly, a low-dose inoculum inducing approximately 50% CPE in each well two days later was added to the next five vertical columns (6-10). To the last two columns, virus-free medium was added to serve as uninfected control wells in order to assess direct cellular cytotoxicity at each agent dilution. The plates were then incubated at 36.5° C. in 5% CO2 in air for two days, at which time they were read. The cytopathology of each well was read using an inverted microscope and scored from 0 to 4 (0=no CPE and 4=>95% CPE); for marginal or equivocal readings a+ or - is affixed to each score. […] The mean score of each five wells in a row receiving a given agent dilution and virus inoculum was then calculated and compared with an appropriate control row receiving no agent. […] When the value fell between two rows, simple arithmetic interpolation was done to calculate the agent concentrate at the point on a slope between the mean scores in the rows above and below this point. The IC values of each agent using the high and low virus inocula were then averaged yielding a final mean IC which was expressed as a micromolar drug concentration.

[2] = test system: HSV-2; assay: Antiherpes activity, inhibition of cytopathic effect (CPE), HSV-2; format: cell-based; conditions: Human alphaherpesvirus 2, 48 h, human foreskin monolayers, mean IC of high and low virus inocula, CPE score lowered by 10 scoring units vs control, 2 days, read-out: Inhibitory Concentration (μM) HSV-2
Description: as §1

[3] = Direct cellular cytotoxicity in uninfected control wells; format: cell-based, human; conditions: foreskin cell monolayers; uninfected human foreskin monolayers; tenfold dilutions; 2 days; read-out: Toxic Concentration
Description: as §1

[4] = test system: human foreskin monolayers; assay: as above; format: cell-based; conditions: statement in words on Table 1
Description: as §1

[5] = test system: herpes; assay: Antiherpes activity; format: cell-based; conditions: statement in words on Table 1
Description: Each of the nucleosides was initially dissolved in a diluent containing 60% propylene glycol and 10% EtOH; subsequent dilutions used maintenance culture medium. Agents were assessed at tenfold dilutions with final concentrations ranging from 10,000 to 0.01 micromolar. […] The plates were then incubated at 36.5° C. in 5% CO2 in air for two days, at which time they were read. The cytopathology of each well was read using an inverted microscope and scored from 0 to 4 (0=no CPE and 4=>95% CPE); for marginal or equivocal readings a+ or - is affixed to each score. […] The mean score of each five wells in a row receiving a given agent dilution and virus inoculum was then calculated and compared with an appropriate control row receiving no agent. […] The IC values of each agent using the high and low virus inocula were then averaged yielding a final mean IC which was expressed as a micromolar drug concentration.

[6] = test system: herpes simplex; conditions: cited from earlier work
[7] = test system: many tumor systems; conditions: Heidelberger, 1965; 1970; cited from earlier work
[8] = cited from earlier work
[9] = neutral aqueous media; Mertes, et al.; cited from earlier work

## O=c1[nH]c(=O)n([C@H]2C[C@H](O)[C@@H](CO)O2)cc1C(F)F [R=CHF2, R^1=H, X=H, 2'-Deoxy-5-difluoromethyluridine]
[1]
  IC (CPE score lowered by 10 units): 1.4 µM
[2]
  IC (CPE score lowered by 10 units): 1.66 µM
[3]
  MCC at 48 h: 1 mM
[4]
  cytotoxicity: without serious cytotoxicity
[5]
  antiherpes activity: very potent antiherpes activity

## O=c1[nH]c(=O)n([C@H]2C[C@H](O)[C@@H](CO)O2)cc1CF [R=CH2 F, R^1=H, X=H, 2'-deoxy-5-monofluoromethyluridine]
[1]
  IC (CPE score lowered by 10 units): > 100 µM
[2]
  IC (CPE score lowered by 10 units): > 100 µM
[3]
  MCC at 48 h: 1 mM

## CC(=O)OC[C@H]1O[C@@H](n2cc(C)c(=O)[nH]c2=O)[C@@H](F)[C@@H]1OC(C)=O [R=CH3, R^1=Ac, X=F, 1-(3,5-di-0-acetyl-2-deoxy-2-fluoro-β-D-arabinofuranosyl)thymine, reference compound]
[1]
  IC (CPE score lowered by 10 units): 0.44 µM
[2]
  IC (CPE score lowered by 10 units): 1.23 µM
[3]
  MCC at 48 h: 1 mM

## CC(=O)OC[C@H]1O[C@@H](n2cc(CF)c(=O)[nH]c2=O)[C@@H](F)[C@@H]1OC(C)=O [R=CH2 F, R^1=Ac, X=F, 1-(3,5-Di-0-acetyl-2-deoxy-2-fluoro-β-D-arabinofuranosyl)-5-monofluoromethyluracil]
[1]
  IC (CPE score lowered by 10 units): 2.46 µM
[2]
  IC (CPE score lowered by 10 units): 5.19 µM
[3]
  MCC at 48 h: 1 mM

## O=c1[nH]c(=O)n([C@@H]2O[C@H](CO)[C@@H](O)[C@@H]2F)cc1C(F)F [R=CHF2, R^1=H, X=F, 1-(2'-Deoxy-2'-fluoro-β-D-arabinofuranosyl)-5-difluoromethyluracil]
[1]
  IC (CPE score lowered by 10 units): 0.48 µM
[2]
  IC (CPE score lowered by 10 units): 1.04 µM
[3]
  MCC at 48 h: 1 mM

## O=c1[nH]c(=O)n([C@H]2C[C@H](O)[C@@H](CO)O2)cc1C(F)(F)F [F3 TDR, 1-(2'-deoxy-β-D-erythropentofuranosyl)-5-trifluoromethyluracil]
[6]; Heidelberger, 1965, 1970
  activity against herpes simplex: has shown activity
[6]; reported
  antiherpetic (reported): antiherpetic
[7]
  activity against many tumor systems: has shown activity
[8]
  cytotoxic (reported): very cytotoxic

## CC(=O)OC[C@H]1O[C@@H](n2cc(C(F)F)c(=O)[nH]c2=O)C[C@@H]1OC(C)=O [R=CHF2, R^1=Ac, X=H, 1-(3',5'-Di-0-acetyl-2'-deoxy-β-D-erythropentofuranosyl)-5-difluoromethyluracil]
[1]
  IC (CPE score lowered by 10 units): 17 µM
[2]
  IC (CPE score lowered by 10 units): 25.1 µM
[3]
  MCC at 48 h: 1 mM
[4]
  cytotoxicity: without serious cytotoxicity
[5]
  antiherpes activity: very potent antiherpes activity

## O=c1[nH]cc(C(F)F)c(=O)[nH]1 [5-Difluoromethyluracil]
[9]
  lability: extremely labile in neutral aqueous media

## O=c1[nH]c(=O)n([C@@H]2O[C@H](CO)[C@@H](O)[C@@H]2F)cc1CF [R=CH2 F, R^1=H, X=F, 1-(2'-Deoxy-2'-fluoro-β-D-arabinofuranosyl)-5-monofluoromethyluracil]
[1]
  IC (CPE score lowered by 10 units): 0.21 µM
[2]
  IC (CPE score lowered by 10 units): 0.18 µM
[3]
  MCC at 48 h: 1 mM

## Cc1cn([C@@H]2O[C@H](CO)[C@@H](O)[C@@H]2F)c(=O)[nH]c1=O [FMAU, 1-(2-Deoxy-2-fluoro-β-D-arabinofuranosyl)thymine, reference compound]
[1]
  IC (CPE score lowered by 10 units): 0.1 µM
[2]
  IC (CPE score lowered by 10 units): 0.05 µM
[3]
  MCC at 48 h: 1 mM

## CC(=O)OC[C@H]1O[C@@H](n2cc(C(F)F)c(=O)[nH]c2=O)[C@@H](F)[C@@H]1OC(C)=O [R=CHF2, R^1=Ac, X=F]
[1]
  IC (CPE score lowered by 10 units): 0.71 µM
[2]
  IC (CPE score lowered by 10 units): 2.16 µM
[3]
  MCC at 48 h: 1 mM

## CC(=O)OC[C@H]1O[C@@H](n2cc(CF)c(=O)[nH]c2=O)C[C@@H]1OC(C)=O [R=CH2 F, R^1=Ac, X=H, 1-(3',5'-di-0-acetyl-β-D-erythropentofuranosyl)-5-monofluoromethyluracil]
[1]
  IC (CPE score lowered by 10 units): > 100 µM
[2]
  IC (CPE score lowered by 10 units): > 100 µM
[3]
  MCC at 48 h: 1 mM

Source: patent US4762823A, “Nucleosides of 5-monofluoromethyluracil and 5-difluoromethyluracil” (Sloan-Kettering Institute for Cancer Research, priority 1985, dated 1988)
